Results as given in US20050089473A1, “Potassium channel mediated delivery of agents through the blood-brain barrier” (Cedars-Sinai Medical Center, priority 2003, published 2005).
Counter-ions that a name gives are not always drawn.

Tests used:
[1] = test system: RG2 tumor capillary endothelium; assay: Transmission electron microscopy of vesicular transport in tumor capillary endothelium; assay type: in vivo, rat; conditions: i.c. MS 30 μg/kg/min 15 min
From the text: S., Rao, […]., and Black, K. L. Regulation of blood-brain tumor barrier permeability by calcium-activated potassium channels J. Pharmacol. Exp. Ther., 301:838-851, 2002). […] S., Rao, […]., and Black, K. L. Regulation of blood-brain tumor barrier permeability by calcium-activated potassium channels J. Pharmacol. Exp. Ther., 301:838-851, 2002). Briefly, micrographs were placed on a digitizing screen and structural features measued using Scan […]TM, a computer-assisted, image analysis system (Jandel Scientific, Corte Madera, Calif.). Abluminal and luminal circumferences, areas of endothelial cytoplasm excluding nuclei and vacuoles, and mean thickness of endothelial cytoplasm were measured and compared with those in the control group. The mean thickness of endothelium was calculated by subtraction of the luminal radius from the abluminal radius, which was obtained from the areas encircled by the luminal and abluminal circumferences, respectively. The proportion of total vesicular area to the cytoplasmic area was expressed as a percentage in order to derive another parameter to characterize vesicular transport.

[2] = test system: intracranial human glial tumors; assay: Survival study, nude mice with intracranial human glial tumors; assay type: in vivo, mouse; conditions: i.v., three consecutive doses for three days
Procedure: GBM-xenograft rat and mouse models were developed by intracranially implanting primary GBM cells isolated from patient brain tumor tissue. […] To investigate whether MS administration by intracarotid (i.c.) and intravenous (i.v.) routes, increases BTB permeability to different tracers, and enhances delivery to brain tumor, permeability studies were performed.
Nude mice were intracranially implanted with cells. The tumor was allowed to grow for 7 days before treatment was initiated.

GBM and RG2 brain tumors = assay: GFP-adenoviral and erbB-2 antibody delivery across the BTB; assay type: in vivo, rat
Procedure: GFP-Adv constructs were prepared as described by Smith et al. (Smith, G. M., Berry, R. L., Yang, J., and Tanelian, D. Electrophysiological analysis of dorsal root ganglion neurons pre- and post-coexpression of green fluorescent protein and functional 5-HHT3 recepter. J. Neurophysiol. 77:3115-3121, 1997) with slight modifications. GFP gene was first cloned into a shuttle vector, pAdTrack-CMV, and the resultant plasmid was linearized by digesting it with restriction endonuclease Pipe I, and subsequently co-transformed into E. Coli cells with an adenoviral backbone plasmid, pAdEasy-1. Recombinant plasmids were transfected into 293 cells. The presence of recombinant adenoviruses was verified by RT-PCR. GFP-Adv (1×10^9 pfu/ml) was infused intracarotidly (i.c.) with or without MS in rats with implanted GBM. Neu rabbits polyclonal and Her-2 MAb, which are specific for rat and human erbB-2 receptors, respectively, were used. […] Her-2 MAbs bound to Her-2 receptors, in vivo was detected by incubating rat brain cryosections as per the manufacturer's (Molecular Probes, OR) procedure with Alexa Flour-647 conjugated secondary antibody (Zecon labeling kit) that specifically binds to the IgG1 fragment of Her-2 MAb. Neu antibody binding to erbB-2 receptors in RG2 brain tumor sections was detected using anti-rabbit IgG conjugated with TRITC. […]

intracerebral RG2 tumors = assay: In vivo BTB permeability (Ki by quantitative autoradiography) in RG2 tumor-bearing rats; design: species or system rat; conditions: i.c. MS 30 μg/kg/min, RG2 tumor
Procedure: All animal experiments were conducted in accordance with policies set by the Institutional Animal Care and Usage Committee and NIH guidelines. A rat syngeneic tumor model was prepared using female Wistar rats and a human-tumor xenograft model in athymic nude rats weighing 180-200 g were prepared for the BBB/BTB permeability studies. […] Rat glioma (RG2) cells (1×10^5) in 5 μl of medium with 1.2% methylcellulose were injected into the basal ganglia of Wistar rats, while nude rats were injected with glioblastoma multiforme (GBM) primary cells (5×10^5). The coordinates were 5-mm lateral to the bregma and 4.5 mm deep to the basal ganglia. […] In regional permeability studies, 5 min after the start of the intracarotid (i.c.) infusion, 100 μCi/kg of [^14C] […]
The Ki was determined for radiotracers, [^14C]-AIB, [^14C]-carboplatin, and [^14C] dextran in the tumor core, tumor-adjacent brain tissue, and contralateral brain tissue using the quantitative autoradiographic (QAR) method as described earlier (Ningarsj, N. S., Rao, M., Hashizume, K., Asotra, K., and Black, K. L. Regulation of blood-brain tumor barrier permeability by calcium-activated potassium channels J. Pharmacol. Exp. Ther., 301:838-851, 2002; Ningaraj, N. S., Rao, M., and Black, K. L. Calcium-dependent potassium channels as a target protein ir. the modulation of blood-brain humor barrier.

Nc1cc(N2CCCCC2)nc(N)[n+]1OS(=O)(=O)[O-] [MS, minoxidil sulfate]
Endothelial tight junction indices in tumor capillaries [1]: did not alter the endothelial tight junction indices | Vesicular density in tumor capillary endothelium [1]: significantly increased vesicular density | Mean survival [2]: 27.09 ± 8.7 days | Delivery of Her-2 MAb and Neu antibody to brain tumor (GBM and RG2 brain tumors; MS 30 μg/kg/min i.c. 15 min, then antibody 1 mg/kg): enhanced delivery of Her-2 MAb selectively to GBM and Neu to RG2 | Delivery of adv-GFP to brain tumor (GBM and RG2 brain tumors; MS i.c. with GFP-Adv 1×10^9 pfu/ml, GBM nude rats): enhanced adv-GFP delivery to brain tumors | Delivery of [14C]-labeled AIB, dextran and carboplatin across the BTB (intracerebral RG2 tumors): significantly enhanced delivery
